Legend:
[1] = Metabolic stability in human liver microsomes assessed as compound remaining at 5 umol/L measured after 60 mins by UPLC/MS analysis; format: ADME, Microsome; settings: dose 5 µmol/L, read-out: Stability
[2] = Apparent permeability in human Caco-2 cells at 25 umol/L incubated for 2 hrs by LC/MS/MS analysis; format: ADME, cell-based; settings: dose 25 µmol/L
[3] = Lipophilicity, logD of compound by RP-HPLC analysis; format: physicochemical
[4] = molecular target: T1, Nuclear receptor ROR-gamma (Homo sapiens, UniProt P51449); assay: Inhibition of GAL4 DNA-binding domain fused RORgamma (unknown origin) transfected in CHO-K1 cells incubated for 2 days by luciferase assay; format: cell-based
T1 sequence (P51449 whole entry): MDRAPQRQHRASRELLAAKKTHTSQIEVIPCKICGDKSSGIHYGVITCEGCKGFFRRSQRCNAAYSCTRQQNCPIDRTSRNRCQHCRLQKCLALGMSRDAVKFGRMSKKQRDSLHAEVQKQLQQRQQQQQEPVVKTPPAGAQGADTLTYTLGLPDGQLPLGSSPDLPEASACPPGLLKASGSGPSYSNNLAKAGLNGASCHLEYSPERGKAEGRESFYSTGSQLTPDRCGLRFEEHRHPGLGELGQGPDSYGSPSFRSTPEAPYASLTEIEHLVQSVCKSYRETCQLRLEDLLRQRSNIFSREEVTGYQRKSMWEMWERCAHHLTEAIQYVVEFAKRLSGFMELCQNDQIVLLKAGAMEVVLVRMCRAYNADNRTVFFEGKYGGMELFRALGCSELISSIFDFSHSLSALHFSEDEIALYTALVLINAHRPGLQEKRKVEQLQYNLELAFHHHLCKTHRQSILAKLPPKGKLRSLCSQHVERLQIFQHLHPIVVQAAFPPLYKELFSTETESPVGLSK

Compound	remaining at 1 h, 5 µM [1]	Papp at 2 h, 25 µM [2]	logD [3]	EC50 [4]
Cc1ccc(NC(=O)C[C@H](C[C@H]2C[C@@H](C(=O)O)C2)c2noc([C@H]3C[C@@H](CC(C)C)C3)c2C2CC2)c(C)c1	69%	20.9 ×10⁻⁶ cm/s	5.1	
Cc1cc(C)c(NC(=O)C[C@H](CC(=O)O)c2noc([C@H]3C[C@@H](CC(C)C)C3)c2C2CC2)cc1C	78%	32 ×10⁻⁶ cm/s	4.6	
Cc1ccc(NC(=O)C[C@H](CC(=O)O)c2noc([C@H]3C[C@@H](CC(C)C)C3)c2C2CC2)cc1C	65%	32.4 ×10⁻⁶ cm/s	4.5	
Cc1ccc(NC(=O)C[C@H](CC(=O)O)c2noc([C@H]3C[C@@H](CC(C)C)C3)c2C2CC2)c(Cl)c1	67%	27.4 ×10⁻⁶ cm/s	4.4	43 nM
CCc1c([C@@H](CC(=O)O)CC(=O)Nc2ccc(C)cc2C)noc1[C@H]1C[C@@H](CC(C)C)C1	68%	37.9 ×10⁻⁶ cm/s	4.2	
Cc1ccc(NC(=O)C[C@H](CC(=O)O)c2noc([C@H]3C[C@@H](C(C)(C)C(C)C)C3)c2C2CC2)c(C)c1	60%	23.6 ×10⁻⁶ cm/s	4.7	
Cc1ccc(NC(=O)CC(c2nnc([C@H]3C[C@@H](CC(C)C)C3)n2C2CC2)C2CN(C)C2)c(C)c1 (mixture of isomers)	78%	0.7 ×10⁻⁶ cm/s	3.8	6900 nM
CCC(CC)C[C@H]1C[C@@H](c2onc([C@@H](CC(=O)O)CC(=O)Nc3ccc(C)cc3C)c2C2CC2)C1	88%	13.6 ×10⁻⁶ cm/s	4.9	
Cc1ccc(NC(=O)CC(Cc2ncco2)c2nnc([C@H]3C[C@@H](CC(C)C)C3)n2C2CC2)c(C)c1 (mixture of isomers)	75%	27 ×10⁻⁶ cm/s	4.5	< 32 nM
Cc1cc(C)cc(NC(=O)C[C@H](CC(=O)O)c2noc([C@H]3C[C@@H](CC(C)C)C3)c2C2CC2)c1	52%	33.7 ×10⁻⁶ cm/s	4.5	
Cc1ccc(NC(=O)C[C@@H](c2noc([C@H]3C[C@@H](CC(C)C)C3)c2C2CC2)C(C)(C)C(=O)O)c(C)c1	77%	27.6 ×10⁻⁶ cm/s	5	260 nM
CC(C)C[C@H]1C[C@@H](c2onc([C@@H](CC(=O)O)CC(=O)Nc3ccc(Cl)cc3F)c2C2CC2)C1	67%	29.9 ×10⁻⁶ cm/s	4.4	97 nM
Cc1cccc(NC(=O)C[C@H](CC(=O)O)c2noc([C@H]3C[C@@H](CC(C)C)C3)c2C2CC2)c1C	67%	35.5 ×10⁻⁶ cm/s	4.3	
CCC(C)(C)C[C@H]1C[C@@H](c2onc([C@@H](CC(=O)O)CC(=O)Nc3ccc(C)cc3C)c2C2CC2)C1	65%	22.5 ×10⁻⁶ cm/s	5	
Cc1ccc(NC(=O)C[C@H](CC(=O)O)c2noc([C@H]3C[C@@H](CC(C)C)C3)c2C(C)C)c(C)c1	37%	23.3 ×10⁻⁶ cm/s	4.4	660 nM
Cc1ccc(NC(=O)C[C@H](OCC(=O)O)c2noc([C@H]3C[C@@H](CC(C)C)C3)c2C2CC2)c(C)c1	64%	24.9 ×10⁻⁶ cm/s	3.8	
C=C(C)c1c([C@@H](CC(=O)O)CC(=O)Nc2ccc(C)cc2C)noc1[C@H]1C[C@@H](CC(C)C)C1	54%	27.6 ×10⁻⁶ cm/s	4.3	1200 nM
Cc1ccc(NC(=O)C[C@H](Cc2nc(C(=O)O)cs2)c2noc([C@H]3C[C@@H](CC(C)C)C3)c2C2CC2)c(C)c1	71%	7.5 ×10⁻⁶ cm/s	4.2	110 nM

Compound	remaining at 1 h, 5 µM [1]	Papp at 2 h, 25 µM [2]	logD [3]	EC50 [4]
Cc1ccc(C)c(NC(=O)C[C@H](CC(=O)O)c2noc([C@H]3C[C@@H](CC(C)C)C3)c2C2CC2)c1	76%	35.5 ×10⁻⁶ cm/s	4.2	65 nM
Cc1ccc(NC(=O)C[C@H](CCC(=O)O)C(=O)N(C[C@H]2C[C@@H](CC(C)(C)C)C2)C2CC2)c(Cl)c1 (mixture of isomers)	73%	30.6 ×10⁻⁶ cm/s	4.5	
Cc1ccc(NC(=O)CC(CC(=O)N(C)C)c2nnc([C@H]3C[C@@H](CC(C)C)C3)n2C2CC2)c(C)c1 (mixture of isomers)	27%	18.3 ×10⁻⁶ cm/s	4.3	150 nM
Cc1ccc(NC(=O)C[C@H](CCC(=O)O)n2ncc([C@H]3C[C@@H](CC(C)(C)C)C3)c2C2CC2)c(Cl)c1	42%	14.5 ×10⁻⁶ cm/s	5	
Cc1ccc(NC(=O)C[C@@H](c2noc([C@H]3C[C@@H](CC(C)C)C3)c2C2CC2)C(C)(C)CC(=O)O)c(C)c1	53%	27.7 ×10⁻⁶ cm/s	5.2	
Cc1ccc(NC(=O)C[C@H](CC(=O)O)c2noc([C@H]3C[C@@H](CCC(C)(C)C)C3)c2C2CC2)c(C)c1	61%	22.8 ×10⁻⁶ cm/s	5	
CC(=O)N1C[C@H](C(=O)Nc2ccc(C)cc2C)[C@@H](c2nnc([C@H]3C[C@@H](CC(C)C)C3)n2C2CC2)C1	61%	19.8 ×10⁻⁶ cm/s		
Cc1ccc(NC(=O)C[C@H](CC(=O)O)c2noc([C@H]3C[C@@H](CC(C)C)C3)c2C2CC2)c(C)c1C	76%	21.8 ×10⁻⁶ cm/s	4.4	
CC(C)C[C@H]1C[C@@H](c2onc([C@@H](CC(=O)O)CC(=O)Nc3ccc(F)cc3Cl)c2C2CC2)C1	74%	33.5 ×10⁻⁶ cm/s	4.3	
Cc1ccc(NC(=O)C[C@H](CC(=O)O)c2noc([C@H]3C[C@@H](CC(C)C)C3)c2C2CC2)c(C)c1	78%	40.6 ×10⁻⁶ cm/s	4.3	
Cc1ccc(NC(=O)CCc2nnc([C@H]3C[C@@H](CC(C)C)C3)n2C2CC2)c(C)c1	39%		4.4	
Cc1cccc(C)c1NC(=O)C[C@H](CC(=O)O)c1noc([C@H]2C[C@@H](CC(C)C)C2)c1C1CC1	85%	39.6 ×10⁻⁶ cm/s	4.2	
Cc1ccc(NC(=O)C[C@H](CC(=O)O)c2noc([C@H]3C[C@@H](CC(C)C)C3)c2C2CC2)c(F)c1	67%	33.1 ×10⁻⁶ cm/s	4.2	
Cc1ccc(NC(=O)C[C@H](c2nnc([C@H]3C[C@@H](CC(C)C)C3)n2C2CC2)[C@H]2C[C@@H](O)C2)c(C)c1	0%	15.2 ×10⁻⁶ cm/s	4.1	
Cc1ccc(NC(=O)CC(CCC(=O)O)c2ncnc([C@H]3C[C@@H](CC(C)(C)C)C3)c2C2CC2)c(Cl)c1 (mixture of isomers)	52%	20.7 ×10⁻⁶ cm/s		16 nM
Cc1ccc(NC(=O)C[C@H](Cc2ccc(C(=O)O)cc2)c2noc([C@H]3C[C@@H](CC(C)C)C3)c2C2CC2)c(C)c1 (mixture of isomers)	67%	14.3 ×10⁻⁶ cm/s	4.7	
Cc1ccc(NC(=O)C[C@H](CC(=O)O)c2noc([C@H]3C[C@@H](CCC(C)C)C3)c2C2CC2)c(C)c1	90%	21.5 ×10⁻⁶ cm/s	4.7	
Cc1ccc(NC(=O)C[C@H](CCC(=O)O)c2noc([C@H]3C[C@@H](CC(C)C)C3)c2C2CC2)c(C)c1	61%	31.4 ×10⁻⁶ cm/s	4.7	

Reference: ChEMBL document CHEMBL5537159, “Discovery and SAR of JTE-151: A Novel RORγ Inhibitor for Clinical Development” (J Med Chem, 2024)
